Source: patent US11542240B2, “STK19 inhibitors for treatment of cancer” (TRUSTEES OF BOSTON UNIVERSITY, priority 2018, dated 2023)
Where two headings read alike, the source gives them in different places.

Key:
Test in all cases: biochemical
Assay type in all cases: binding
[1] = molecular target: panel of 468 diverse kinases (Homo sapiens, UniProt Q9Y616); conditions: IRAK3; 1000 nM; read-out: Percent Control
[2] = molecular target: panel of 468 diverse kinases (Homo sapiens, UniProt Q13153); conditions: PAK1; 1000 nM; read-out: Percent Control
Chain of panel of 468 diverse kinases (Homo sapiens, UniProt Q13153) (Q13153 2-545 limits assumed): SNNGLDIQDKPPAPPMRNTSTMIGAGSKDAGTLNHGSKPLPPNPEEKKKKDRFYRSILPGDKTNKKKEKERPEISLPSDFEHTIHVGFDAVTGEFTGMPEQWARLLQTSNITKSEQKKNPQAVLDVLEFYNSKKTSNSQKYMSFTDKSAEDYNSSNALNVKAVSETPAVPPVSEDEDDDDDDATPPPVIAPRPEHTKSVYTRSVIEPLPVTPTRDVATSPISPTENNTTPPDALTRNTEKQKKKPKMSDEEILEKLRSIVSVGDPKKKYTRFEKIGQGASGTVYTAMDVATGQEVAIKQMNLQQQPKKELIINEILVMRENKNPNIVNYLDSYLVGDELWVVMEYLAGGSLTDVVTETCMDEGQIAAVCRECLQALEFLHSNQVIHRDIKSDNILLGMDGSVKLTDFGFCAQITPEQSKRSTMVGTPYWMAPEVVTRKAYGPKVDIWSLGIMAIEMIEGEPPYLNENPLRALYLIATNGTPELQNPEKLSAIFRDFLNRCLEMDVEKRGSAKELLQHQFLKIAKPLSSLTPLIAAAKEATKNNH

[3] = molecular target: panel of 468 diverse kinases (Homo sapiens, UniProt Q8IVH8); conditions: MAP4K3; 1000 nM; read-out: Percent Control
[4] = molecular target: panel of 468 diverse kinases (Homo sapiens, UniProt O14936); conditions: CASK; 1000 nM; read-out: Percent Control
[5] = molecular target: panel of 468 diverse kinases (Homo sapiens, UniProt P19525); conditions: PRKR; 1000 nM; read-out: Percent Control
Chain of panel of 468 diverse kinases (Homo sapiens, UniProt P19525) (P19525 2-551 limits assumed): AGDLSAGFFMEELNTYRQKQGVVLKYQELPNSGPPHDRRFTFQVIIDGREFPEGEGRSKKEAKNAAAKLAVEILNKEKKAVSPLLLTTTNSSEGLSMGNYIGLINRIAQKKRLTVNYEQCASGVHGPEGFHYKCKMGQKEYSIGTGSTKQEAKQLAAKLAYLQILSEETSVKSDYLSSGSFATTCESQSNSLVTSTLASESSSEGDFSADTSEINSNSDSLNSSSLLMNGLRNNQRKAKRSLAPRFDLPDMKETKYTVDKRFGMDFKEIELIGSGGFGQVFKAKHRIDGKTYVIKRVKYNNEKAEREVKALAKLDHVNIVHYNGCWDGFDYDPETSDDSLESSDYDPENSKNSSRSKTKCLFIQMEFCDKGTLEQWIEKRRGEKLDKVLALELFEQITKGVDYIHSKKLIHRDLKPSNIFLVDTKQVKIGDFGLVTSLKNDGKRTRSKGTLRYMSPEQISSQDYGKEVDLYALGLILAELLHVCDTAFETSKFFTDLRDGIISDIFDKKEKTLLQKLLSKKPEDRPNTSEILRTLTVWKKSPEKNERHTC

[6] = molecular target: panel of 468 diverse kinases (Homo sapiens, UniProt O95835); conditions: LATS1; 1000 nM; read-out: Percent Control
[7] = molecular target: panel of 468 diverse kinases (Homo sapiens, UniProt Q00526); conditions: CDK3; 1000 nM; read-out: Percent Control
[8] = molecular target: panel of 468 diverse kinases (Homo sapiens, UniProt Q9Y2I7); conditions: PIKFYVE; 1000 nM; read-out: Percent Control
[9] = molecular target: panel of 468 diverse kinases (Homo sapiens, UniProt Q9H1R3); conditions: MYLK2; 1000 nM; read-out: Percent Control
Chain of panel of 468 diverse kinases (Homo sapiens, UniProt Q9H1R3) (Q9H1R3 2-596 limits assumed): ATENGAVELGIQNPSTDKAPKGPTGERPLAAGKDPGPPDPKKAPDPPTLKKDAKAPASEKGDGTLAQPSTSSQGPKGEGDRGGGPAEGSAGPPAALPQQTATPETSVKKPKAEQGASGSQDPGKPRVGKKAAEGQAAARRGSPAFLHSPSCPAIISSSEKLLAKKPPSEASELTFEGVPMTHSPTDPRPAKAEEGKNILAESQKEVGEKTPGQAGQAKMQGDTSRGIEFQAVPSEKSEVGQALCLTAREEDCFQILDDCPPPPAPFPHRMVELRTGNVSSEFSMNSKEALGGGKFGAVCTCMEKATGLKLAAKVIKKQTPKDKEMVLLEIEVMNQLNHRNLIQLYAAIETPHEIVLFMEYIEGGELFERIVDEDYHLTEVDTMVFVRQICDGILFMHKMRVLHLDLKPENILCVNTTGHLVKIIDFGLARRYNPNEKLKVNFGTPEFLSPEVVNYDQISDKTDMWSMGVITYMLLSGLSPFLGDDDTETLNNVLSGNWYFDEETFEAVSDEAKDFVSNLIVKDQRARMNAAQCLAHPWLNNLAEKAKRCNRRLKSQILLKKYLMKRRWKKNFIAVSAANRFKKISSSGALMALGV

[10] = molecular target: panel of 468 diverse kinases (Homo sapiens, UniProt Q13555); conditions: CAMK2G; 1000 nM; read-out: Percent Control
[11] = molecular target: panel of 468 diverse kinases (Homo sapiens, UniProt P31751); conditions: AKT2; 1000 nM; read-out: Percent Control
[12] = molecular target: panel of 468 diverse kinases (Homo sapiens, UniProt Q07912); conditions: TNK2; 1000 nM; read-out: Percent Control
[13] = molecular target: panel of 468 diverse kinases (Homo sapiens, UniProt Q86YV6); conditions: MYLK4; 1000 nM; read-out: Percent Control
[14] = molecular target: panel of 468 diverse kinases (Homo sapiens, UniProt P33981); conditions: TTK; 1000 nM; read-out: Percent Control
[15] = molecular target: panel of 468 diverse kinases (Homo sapiens, UniProt P00519, F317L); conditions: 1000 nM, read-out: Percent Control
[16] = molecular target: panel of 468 diverse kinases (Homo sapiens, UniProt P42336, H1047L); conditions: PIK3CA(H1047L); 1000 nM; read-out: Percent Control
[17] = molecular target: panel of 468 diverse kinases (Homo sapiens, UniProt Q9Y3S1); conditions: WNK2; 1000 nM; read-out: Percent Control
[18] = molecular target: panel of 468 diverse kinases (Homo sapiens, UniProt P42336, C420R); conditions: PIK3CA(C420R); 1000 nM; read-out: Percent Control
[19] = molecular target: panel of 468 diverse kinases (Homo sapiens, UniProt P19784); conditions: CSNK2A2; 1000 nM; read-out: Percent Control
[20] = molecular target: panel of 468 diverse kinases (Homo sapiens, UniProt P42680); conditions: TEC; 1000 nM; read-out: Percent Control
[21] = molecular target: panel of 468 diverse kinases (Homo sapiens, UniProt Q9Y2K2); conditions: QSK; 1000 nM; read-out: Percent Control
[22] = molecular target: panel of 468 diverse kinases (Homo sapiens, UniProt P28482); conditions: ERK2; 1000 nM; read-out: Percent Control
Chain of panel of 468 diverse kinases (Homo sapiens, UniProt P28482) (P28482 2-360 limits assumed): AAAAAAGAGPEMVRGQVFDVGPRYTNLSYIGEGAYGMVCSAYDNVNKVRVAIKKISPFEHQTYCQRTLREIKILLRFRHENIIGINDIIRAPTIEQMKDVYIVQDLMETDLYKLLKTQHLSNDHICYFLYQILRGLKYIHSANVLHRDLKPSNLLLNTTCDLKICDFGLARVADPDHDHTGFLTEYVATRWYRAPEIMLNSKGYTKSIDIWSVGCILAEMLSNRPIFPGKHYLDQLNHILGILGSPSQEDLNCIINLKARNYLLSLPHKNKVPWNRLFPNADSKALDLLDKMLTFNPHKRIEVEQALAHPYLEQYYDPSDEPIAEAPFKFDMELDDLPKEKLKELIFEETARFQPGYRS

[23] = molecular target: panel of 468 diverse kinases (Homo sapiens, UniProt P53355); conditions: DAPK1; 1000 nM; read-out: Percent Control
[24] = molecular target: panel of 468 diverse kinases (Homo sapiens, UniProt O14733); conditions: MKK7; 1000 nM; read-out: Percent Control
Chain of panel of 468 diverse kinases (Homo sapiens, UniProt O14733) (O14733 2-419 limits assumed): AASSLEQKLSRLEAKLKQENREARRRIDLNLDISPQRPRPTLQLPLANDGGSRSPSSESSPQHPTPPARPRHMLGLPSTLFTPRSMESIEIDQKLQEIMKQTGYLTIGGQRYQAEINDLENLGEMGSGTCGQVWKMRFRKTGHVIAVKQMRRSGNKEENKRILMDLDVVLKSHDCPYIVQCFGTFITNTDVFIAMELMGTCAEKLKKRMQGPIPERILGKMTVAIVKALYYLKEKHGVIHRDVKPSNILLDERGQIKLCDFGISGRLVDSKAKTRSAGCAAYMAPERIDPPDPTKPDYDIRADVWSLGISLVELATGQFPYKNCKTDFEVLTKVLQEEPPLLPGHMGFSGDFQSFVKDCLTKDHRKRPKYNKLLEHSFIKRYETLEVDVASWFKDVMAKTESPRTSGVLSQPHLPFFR

[25] = molecular target: panel of 468 diverse kinases (Homo sapiens, UniProt Q8TDR2); conditions: STK35; 1000 nM; read-out: Percent Control
[26] = molecular target: panel of 468 diverse kinases (Homo sapiens, UniProt Q96D53); conditions: ADCK4; 1000 nM; read-out: Percent Control
[27] = molecular target: panel of 468 diverse kinases (Homo sapiens, UniProt P42684); conditions: ABL2; 1000 nM; read-out: Percent Control
Chain of panel of 468 diverse kinases (Homo sapiens, UniProt P42684) (P42684 2-1182 limits assumed): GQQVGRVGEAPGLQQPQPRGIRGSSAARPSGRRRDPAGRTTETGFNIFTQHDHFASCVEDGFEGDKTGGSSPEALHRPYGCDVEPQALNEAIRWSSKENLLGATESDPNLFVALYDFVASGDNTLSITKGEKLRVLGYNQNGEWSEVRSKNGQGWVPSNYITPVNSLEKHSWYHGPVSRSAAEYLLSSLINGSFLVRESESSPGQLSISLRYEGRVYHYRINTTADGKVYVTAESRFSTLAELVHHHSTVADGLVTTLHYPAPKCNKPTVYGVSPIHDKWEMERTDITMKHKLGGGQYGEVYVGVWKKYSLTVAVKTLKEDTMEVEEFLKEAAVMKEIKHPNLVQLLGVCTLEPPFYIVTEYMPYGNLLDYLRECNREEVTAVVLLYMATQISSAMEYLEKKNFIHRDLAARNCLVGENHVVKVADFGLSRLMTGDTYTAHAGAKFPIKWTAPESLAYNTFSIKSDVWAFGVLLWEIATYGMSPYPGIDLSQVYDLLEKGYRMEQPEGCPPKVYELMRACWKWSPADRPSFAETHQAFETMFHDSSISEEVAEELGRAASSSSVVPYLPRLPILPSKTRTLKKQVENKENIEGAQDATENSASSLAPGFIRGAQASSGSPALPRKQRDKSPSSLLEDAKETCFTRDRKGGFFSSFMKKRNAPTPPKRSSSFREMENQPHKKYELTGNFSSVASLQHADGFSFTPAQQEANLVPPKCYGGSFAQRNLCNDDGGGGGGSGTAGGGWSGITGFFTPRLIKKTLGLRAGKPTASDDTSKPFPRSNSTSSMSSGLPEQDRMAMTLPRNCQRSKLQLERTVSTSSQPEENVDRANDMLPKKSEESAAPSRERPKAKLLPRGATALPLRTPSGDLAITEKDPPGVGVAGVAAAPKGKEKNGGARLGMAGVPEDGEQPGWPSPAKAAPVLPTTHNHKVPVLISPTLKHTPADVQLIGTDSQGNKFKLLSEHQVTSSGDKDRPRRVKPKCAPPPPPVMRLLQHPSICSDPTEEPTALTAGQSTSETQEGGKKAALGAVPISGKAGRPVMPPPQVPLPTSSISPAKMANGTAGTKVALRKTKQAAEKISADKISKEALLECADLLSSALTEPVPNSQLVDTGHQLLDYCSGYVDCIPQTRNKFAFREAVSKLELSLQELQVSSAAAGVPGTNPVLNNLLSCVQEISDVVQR

[28] = molecular target: panel of 468 diverse kinases (Homo sapiens, UniProt P50750); conditions: CDK9; 1000 nM; read-out: Percent Control
[29] = molecular target: panel of 468 diverse kinases (Homo sapiens, UniProt O00141); conditions: SGK; 1000 nM; read-out: Percent Control
[30] = molecular target: panel of 468 diverse kinases (Homo sapiens, UniProt O76039); conditions: CDKL5; 1000 nM; read-out: Percent Control
[31] = molecular target: panel of 468 diverse kinases (Homo sapiens, UniProt Q04771); conditions: ACVR1; 1000 nM; read-out: Percent Control
Chain of panel of 468 diverse kinases (Homo sapiens, UniProt Q04771) (Q04771 21-509 limits assumed): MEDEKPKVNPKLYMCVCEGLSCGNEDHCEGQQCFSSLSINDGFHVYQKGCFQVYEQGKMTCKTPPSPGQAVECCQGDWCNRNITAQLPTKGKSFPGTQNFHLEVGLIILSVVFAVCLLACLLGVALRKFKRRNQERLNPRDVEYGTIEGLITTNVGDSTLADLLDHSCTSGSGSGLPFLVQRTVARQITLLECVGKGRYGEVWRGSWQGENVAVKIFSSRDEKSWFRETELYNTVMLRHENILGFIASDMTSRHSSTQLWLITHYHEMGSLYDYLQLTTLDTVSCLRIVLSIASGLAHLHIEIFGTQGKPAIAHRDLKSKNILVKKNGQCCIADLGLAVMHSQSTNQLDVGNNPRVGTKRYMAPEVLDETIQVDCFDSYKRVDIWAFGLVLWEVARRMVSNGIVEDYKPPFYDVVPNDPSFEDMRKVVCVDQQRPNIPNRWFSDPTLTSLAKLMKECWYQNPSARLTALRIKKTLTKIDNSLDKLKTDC

COc1cc2nc(NC3CC3)nc(NC3CCN(C(C)C)CC3)c2cc1OC [Formula IV]
remaining activity at 1 µM [1]: 99%
remaining activity at 1 µM [2]: 87%
remaining activity at 1 µM [3]: 91%
remaining activity at 1 µM [4]: 60%
remaining activity at 1 µM [5]: 99%
remaining activity at 1 µM [6]: 100%
remaining activity at 1 µM [7]: 100%
remaining activity at 1 µM [8]: 96%
remaining activity at 1 µM [9]: 96%
remaining activity at 1 µM [10]: 100%
remaining activity at 1 µM [11]: 89%
remaining activity at 1 µM [12]: 100%
remaining activity at 1 µM [13]: 93%
remaining activity at 1 µM [14]: 85%
remaining activity at 1 µM ([15]; ABL1 (F317L)-nonpho sphorylated): 82%
remaining activity at 1 µM ([15]; ABL1(F317L)-phosphorylated): 40%
remaining activity at 1 µM [16]: 90%
remaining activity at 1 µM [17]: 58%
remaining activity at 1 µM [18]: 91%
remaining activity at 1 µM [19]: 63%
remaining activity at 1 µM [20]: 100%
remaining activity at 1 µM [21]: 44%
remaining activity at 1 µM [22]: 81%
remaining activity at 1 µM [23]: 99%
remaining activity at 1 µM [24]: 72%
remaining activity at 1 µM [25]: 94%
remaining activity at 1 µM [26]: 100%
remaining activity at 1 µM [27]: 98%
remaining activity at 1 µM [28]: 100%
remaining activity at 1 µM [29]: 68%
remaining activity at 1 µM [30]: 52%
remaining activity at 1 µM [31]: 100%
